Biological target: T1, Rhodobacter sphaeroides BcsA-B complex (cellulose synthase), wild type, BcsA SEQ ID NO: 1, BcsB SEQ ID NO: 3 (Cereibacter sphaeroides, UniProt Q3J125)
T1 construct: pETDuet, E. coli C43; purified, reconstituted in nanodiscs, proteoliposomes or detergent
T1 sequence (Q3J125 1-788): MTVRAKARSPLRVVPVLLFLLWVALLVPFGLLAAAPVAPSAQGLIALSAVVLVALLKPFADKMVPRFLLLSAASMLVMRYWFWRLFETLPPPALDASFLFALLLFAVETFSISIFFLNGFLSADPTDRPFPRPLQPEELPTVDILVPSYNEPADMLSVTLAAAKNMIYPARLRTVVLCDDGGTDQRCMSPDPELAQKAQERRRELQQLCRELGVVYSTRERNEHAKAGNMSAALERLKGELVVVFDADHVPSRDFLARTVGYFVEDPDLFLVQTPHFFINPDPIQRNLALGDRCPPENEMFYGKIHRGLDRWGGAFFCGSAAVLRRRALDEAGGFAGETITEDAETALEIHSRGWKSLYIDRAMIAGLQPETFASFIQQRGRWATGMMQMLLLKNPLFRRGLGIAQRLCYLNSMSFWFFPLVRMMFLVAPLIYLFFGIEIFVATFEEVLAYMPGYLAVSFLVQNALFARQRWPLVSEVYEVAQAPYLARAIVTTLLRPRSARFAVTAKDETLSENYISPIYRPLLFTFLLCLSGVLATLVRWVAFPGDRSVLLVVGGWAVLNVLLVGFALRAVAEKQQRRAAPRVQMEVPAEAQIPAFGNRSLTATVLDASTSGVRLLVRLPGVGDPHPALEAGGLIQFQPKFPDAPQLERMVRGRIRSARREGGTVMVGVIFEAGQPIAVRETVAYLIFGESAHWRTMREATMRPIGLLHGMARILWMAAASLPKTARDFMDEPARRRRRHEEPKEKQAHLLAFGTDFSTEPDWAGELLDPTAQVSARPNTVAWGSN
T1 sequence (Q3J126 21-725 partner): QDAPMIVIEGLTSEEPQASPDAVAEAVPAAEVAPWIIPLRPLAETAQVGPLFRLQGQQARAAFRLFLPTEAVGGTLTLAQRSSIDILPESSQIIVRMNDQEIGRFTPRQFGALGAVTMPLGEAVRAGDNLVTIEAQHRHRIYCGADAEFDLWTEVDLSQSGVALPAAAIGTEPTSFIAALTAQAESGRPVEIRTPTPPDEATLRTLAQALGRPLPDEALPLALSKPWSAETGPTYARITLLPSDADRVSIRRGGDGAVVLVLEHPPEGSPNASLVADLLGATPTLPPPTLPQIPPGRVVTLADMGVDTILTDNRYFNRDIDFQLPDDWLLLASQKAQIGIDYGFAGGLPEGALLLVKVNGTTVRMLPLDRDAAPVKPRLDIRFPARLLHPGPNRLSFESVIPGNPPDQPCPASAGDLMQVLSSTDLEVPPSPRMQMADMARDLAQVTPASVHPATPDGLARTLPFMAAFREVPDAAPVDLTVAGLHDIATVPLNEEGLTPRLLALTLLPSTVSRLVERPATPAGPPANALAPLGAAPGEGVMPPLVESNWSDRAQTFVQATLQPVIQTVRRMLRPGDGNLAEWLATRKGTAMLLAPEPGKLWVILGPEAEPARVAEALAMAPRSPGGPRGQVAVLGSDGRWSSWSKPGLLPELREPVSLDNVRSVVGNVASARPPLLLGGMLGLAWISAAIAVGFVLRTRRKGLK
Assay: Cellulose synthesis sedimentation assay, inhibition by nucleoside diphosphates, PL-reconstituted BcsA-B
Type: biochemical
Settings: 0.5 mM UDP-Glc; increasing nucleotide concentrations; 60 min, 37° C.
Method: FIG. 4A-4C (also referred to as Example 1, FIG. 4): Product inhibition of cellulose synthase. (FIG. 4A) Enzyme-coupled cellulose synthesis assays were performed as described in FIG. 3 in the absence or presence of 0.1 mg/ml E. coli BesZ. […] Inset: Radioactive sedimentation assay performed with ND-reconstituted BcsA-B synthesizing cellulose in the absence or presence of BcsZ. (FIG. 4B) Inhibition of cellulose synthesis by UDP. Cellulose synthesis sedimentation assays were performed with 1 μM PL-reconstituted BesA-B in the presence of increasing concentrations of the indicated nucleotides and 0.5 mM UDP-Glc for 60 min at 37° C. The obtained product is quantified relative to the polymer formed in the absence of any nucleoside diphosphate. (FIG. 4C) UDP is a competitive inhibitor of cellulose synthase. […] The products are quantified relative to the polymer formed in the absence of UDP and the presence of 5 mM UDP-Glc. […]
Standard cellulose synthase sedimentation assays were performed by incubating 1 μM of cellulose synthase complexes, either in PLs, ND or detergent micelles, in the presence of 30 μM c-di-GMP, 20 mM MgCl2, 5 mM UDP-Glc and 0.25 μCi UDP-[3H]-Glc in AB-buffer lacking glycerol and containing only 0.1 M NaCl. […] Following paper chromatography, the high molecular weight polymer retained at the origin was quantified by scintillation counting. […]

SMILES	inhibition of cellulose synthesis by nucleoside diphosphates
Nc1nc2c(ncn2[C@@H]2O[C@H](COP(=O)(O)OP(=O)(O)O)[C@@H](O)[C@H]2O)c(=O)[nH]1 [guanosine-diphosphate]	do not inhibit cellulose synthesis
Nc1ncnc2c1ncn2[C@@H]1O[C@H](COP(=O)(O)OP(=O)(O)O)[C@@H](O)[C@H]1O [adenosine-diphosphate]	do not inhibit cellulose synthesis
